In ChEMBL document CHEMBL1128957, “In vivo potent antifilarial -carbolines” (1996) one finds Activity and Death data, which are given here for six molecules.

Active and inactive are the calls of the source. No cut-off for these calls is given here.

The species named for assay [1] is Rattus norvegicus. The assay is described as follows: Percentage of sterilization of surviving female worm Acanthocheilonema viteae in Mastomys natalensis: Inactive. Format: functional, organism-based.
Assay [2] concerns Rattus norvegicus. The assay is described as follows: In vivo macrofilaricidal activity against Acanthocheilonema viteae in Mastomys natalensis at a dose of 50 mg/kg for 5 days administered i.p. Type of assay: functional. Particulars: route intraperitoneal.
The subject of assay [3] is Rattus norvegicus. The experiment in a line: In vivo macrofilaricidal activity against Litomosoides carinii in cotton rats at a dose of 30 mg/kg for 5 days administered i.p.: Inactive. Type of assay: functional, organism-based. Set-up: dose 30 mg/kg.
Assay [4] concerns Rattus norvegicus. The assay is described as follows: In vivo microfilaricidal activity against A. viteae in Mastomys natalensis at a dose of 50 mg/kg for 5 days administered i.p.: Inactive. Format: functional, organism-based. Set-up: dose 50 mg/kg.
For assay [5], the system named is Rattus norvegicus. The experiment in a line: In vivo microfilaricidal activity against Litomosoides carinii in cotton rats at a dose of 30 mg/kg for 5 days administered i.p.: Inactive. Type of assay: functional, organism-based. Set-up: dose 30 mg/kg.
Assay [6] is filed under the species Rattus norvegicus. The assay is described as follows: Percentage of sterilization of surviving female worm Acanthocheilonema viteae in Mastomys natalensis. Format: functional.
The subject of assay [7] is Rattus norvegicus. The experiment in a line: In vivo macrofilaricidal activity against A. viteae in Mastomys natalensis at a dose of 350 mg/kg for 5 days administered i.p.: Inactive. Format: functional, organism-based. Also on record: dose 350 mg/kg.
Assay [8] concerns Rattus norvegicus. The assay is described as follows: In vivo macrofilaricidal activity against Litomosoides carinii in cotton rats at a dose of 6 mg/kg for 5 days administered i.p.: Inactive. Format: functional, organism-based. Set-up: dose 6 mg/kg.
Assay [9] has as its system Rattus norvegicus. The experiment in a line: In vivo macrofilaricidal activity against Litomosoides carinii in cotton rats at a dose of 30 mg/kg for 5 days administered i.p. Conditions: route intraperitoneal. Format: functional.
Assay [10] concerns Rattus norvegicus. The assay is described as follows: In vivo microfilaricidal activity against Litomosoides carinii in cotton rats at a dose of 30 mg/kg for 5 days administered i.p. Type of assay: functional. Particulars: route intraperitoneal.
The species named for assay [11] is Rattus norvegicus. The experiment in a line: Percentage of sterilization of surviving female worm Acanthocheilonema viteae: Inactive. Type of assay: functional, organism-based.
In assay [12] the test system is Rattus norvegicus. The assay is described as follows: In vivo macrofilaricidal activity against A. viteae in Mastomys natalensis at a dose of 50 mg/kg for 5 days administered i.p.: Inactive. Set-up: dose 50 mg/kg. Type of assay: functional, organism-based.

`NC(=O)C1NCCc2c1[nH]c1ccccc21` (stereo not given): in assay [1], the result was inactive. The molecule further had a Death in assay [2] of 84%. The Death result in assay [3], in [4] and in assay [5] was “inactive” in each case.
`NC(=O)c1nccc2c1[nH]c1ccccc12`: the Activity in assay [6] came to 100. For the same molecule, the Death in assay [2] is 50%. The Death result in assay [3] and in assay [5] was “inactive” each time.
With `CCN(CC)C(=O)N1CCN(C)CC1.O=C(O)CC(O)(CC(=O)O)C(=O)O` [DIETHYLCARBAMAZINE CITRATE], the result in [1] was inactive. Besides, the Death result in assay [7] and in assay [8] was “inactive” each time.
With `N#Cc1[nH]ccc2c3ccccc3nc1-2`, in assay [1], the result was inactive. Further, the Death was found to be 50% in assay [2], 78% in assay [9] and 59% in [10]. Also, the Death result in assay [4] was “inactive”.
As to `COC(=O)c1nccc2c1[nH]c1ccccc12`, in assay [11], the result was inactive. Further, the Death result in assay [12], in assay [3] and in assay [5] was “inactive” each time.
Take `COC(=O)C1NCCc2c1[nH]c1ccccc21` (stereo not given): the outcome in assay [1] was inactive. Also, the Death result in assay [12] and in assay [5] was “inactive” throughout. Besides, the Death in assay [9] was determined as 81%.
